Test results taken from US20030008807A1, “Novel signaling pathway for the production of inflammatory pain and neuropathy” (The Regents of the University of California, priority 2001, published 2003).
“Also recorded” adds a separate entry of the source. Blank lines part the entries; values can stand above or below the molecule they belong to.

What was measured:
[1] = test system: mechanical nociceptive threshold; test: Epinephrine-induced mechanical hyperalgesia, Randall-Selitto paw-withdrawal test (Example 1); settings: intradermal, inhibitor 1 μg plus epinephrine 100 ng, male rats
[2] = test system: ERK1/2; test: Epinephrine-stimulated ERK1/2 phosphorylation in cultured rat DRG neurons (Western analysis); type: cell-based; settings: for effect on epinephrine-induced ERK phosphorylation: 1 μM epinephrine 5 min, ICI 118,551 100 nM, U0126 10 μM, H89 1 μM, calphostin C 1 μM
[3] = test system: mechanical nociceptive threshold; test: Epinephrine-induced hyperalgesia in gonad-intact and gonadectomized male and female rats (Example 2); settings: inhibitor 1 μg, epinephrine 100 ng intradermal
Experimental: The nociceptive flexion reflex was quantified using the Randall-Selitto paw pressure device (Analgesymeter, Stoetling, Chicago, Ill., USA), which applies a linearly increasing mechanical force to the dorsum of the rat's hind paw. The mechanical nociceptive threshold was defined as the force in grams at which the rat withdrew its paw. […] Baseline paw-withdrawal threshold was defined as the mean of six readings before test agents were injected. […] Each group of rats was treated with only one agonist and/or antagonist injected peripherally by the intradermal route. […] All behavioural testing was done between 10.00 and 16.00 h. […] The protein kinase inhibitor was separated from the distilled water by drawing up a small air bubble (<1 μL) into the syringe after drawing up the protein kinase inhibitor but before drawing up the distilled water.
A stock solution of PGE2 (4 mg/mL) was made by dissolving it in 10% ethanol in normal saline; further dilution to 100 ng was made by addition of saline. Final concentration of ethanol was <10%. […] Stock solutions (1 μg/μL) of inhibitors were stored at −20° C. […] Inhibitors were injected at a concentration of 1 μg/2.5 μL.

[4] = test system: mechanical nociceptive threshold; test: Prostaglandin E2-induced hyperalgesia in male and female rats (Example 2); type: in vivo, rat
Excerpt: The nociceptive flexion reflex was quantified using the Randall-Selitto paw pressure device (Analgesymeter, Stoetling, Chicago, Ill., USA), which applies a linearly increasing mechanical force to the dorsum of the rat's hind paw. The mechanical nociceptive threshold was defined as the force in grams at which the rat withdrew its paw. The protocols for this procedure have been previously described (Taiwo et al., (1989) The contribution of training to sensitivity in the nociceptive paw-withdrawal test. Brain Res., 487:148-151). Rats were familiarized in the testing procedure, at 5-min intervals for a period of 1 h per day for 3 days in the week preceding the experiment, to decrease variance in nociceptive thresholds (Taiwo et al., (1989), supra). Baseline paw-withdrawal threshold was defined as the mean of six readings before test agents were injected. Each paw was treated as an independent measure (Taiwo et al., (1989), supra) and each experiment was performed on a separate group of rats. Each group of rats was treated with only one agonist and/or antagonist injected peripherally by the intradermal route. It has been shown in previous studies that these agents, which are injected using the protocol described, exert a peripheral rather than central action (Khasar et al., (1995), supra; and, Khasar et al., (1999b), supra). The dose-response relationship for the effect of epinephrine was determined over a dose range of 1 ng-1 μg. All behavioural testing was done between 10.00 and 16.00 h. The blocking agents, with and without epinephrine (Khasar et al., (1999b), supra) or prostaglandin E2 (PGE2) (Aley et al., (1998), supra; Aley & Levine, (1999), supra; and, Aley et al., (2000) Chronic hypersensitivity for inflammatory nociceptor sensitization mediated by the epsilon isozyme of protein kinase C. J. Neurosci., 20:4680-4685), were injected as described previously (Khasar et al., (1995), supra; and, Khasar et al., (1999b), supra). […]

[5] = test system: Taxol-induced hyperalgesia; test: Taxol-induced painful peripheral neuropathy, Randall-Selitto paw-withdrawal test; type: in vivo, rat; settings: male and female rats; normal approximately 110 grams
Excerpt: (§1) The role of Ras-MEK-ERK 1/2 cascade in painful peripheral neuropathy has been evaluated in three rodent models of common clinical conditions in which patients experience painful peripheral neuropathy. The three models are as follows: 1) Taxol® (a major cancer chemotherapy agent)-induced painful peripheral neuropathy (Dina, O. A., et al., (2001) Role of protein kinase C-epsilon and protein kinase A in a model of paclitaxel-induced painful peripheral neuropathy in the rat. Neuroscience 108:507-515); 2) vincristine (another cancer chemotherapy agent)-induced painful peripheral neuropathy (Aley, K. O., et al., (1996) Vincristine hyperalgesia in the rat: a possible modelfor painful vincristine neuropathy in humans. Neuroscience 73:259-265; Tanner, K. D., et al., (1998) Nociceptor hyper-responsiveness during vincristine-induced painful peripheral neuropathy in the rat. J. Neuroscience 18:6480-6491; Tanner, K. D., et al., (1998) Microtubule disorientation and axonal swelling in unmyelinated sensory axons during vincristine-induced painful neuropathy in rat. J. Comp. Neurol., 395:481-492; and, Tanner, K. D., et al., (2002) Altered temporal patterning of afferent activity in a rat model of vincristine-induced peripheral neuropathy (Submitted -Neuroscience).); and, 3) alcohol-induced painful peripheral neuropathy (Dina, O. A., et al., (2000) Key role for the epsilon isoform of protein kinase C in painful alcoholic neuropathy in the rat. J. Neurosci. 20:8614-8619). In all three models, inhibition of MEK by a MEK inhibitor, PD98509, produced either a moderate (Taxol and vincristine) or profound (alcohol) reversal of the painful peripheral neuropathy. In the third model, alcohol-induced painful peripheral neuropathy, a second inhibitor of the Ras-MEK-ERK 1/2 cascade, which was MEK inhibitor U0126, was also employed.
The pain threshold in normal male and female rats was approximately 110 grams, using the Randall-Selitto paw-withdrawal test (plotted as absolute change in nociceptive threshold). Following administration of Taxol, the threshold fell to approximately 70 grams.

[6] = test system: alcohol-induced hyperalgesia; test: Alcohol-induced painful peripheral neuropathy, Randall-Selitto paw-withdrawal test; type: in vivo, rat
Excerpt: as §1
The pain threshold in normal rats was approximately 110 grams, using the Randall-Selitto paw-withdrawal threshold test (plotted as percentage change in nociceptive threshold). Following chronic consumption of a diet in which alcohol replaced calories, but not other nutrients, in the normal diet, the threshold fell to approximately 70 grams. […] See FIG. 13A, which illustrates results from female rats and FIG. 13B, which illustrates results from male rats.

[7] = test system: mechanical nociceptive threshold; settings: rat, in vivo; cited from earlier work
[8] = test system: vincristine-induced hyperalgesia; test: Vincristine-induced painful peripheral neuropathy, Randall-Selitto paw-withdrawal test; type: in vivo, rat; settings: male and female rats; normal approximately 110 grams
Excerpt: as §1
The pain threshold in normal male and female rats was approximately 110 grams, using the Randall-Selitto paw-withdrawal test (plotted as absolute change in nociceptive threshold). Following administration of vincristine, the threshold fell to approximately 65 grams.

Molecule: O=S(=O)(NCCNCC=Cc1ccc(Br)cc1)c1cccc2cnccc12 [H89, N-[2-(p-bromocinnamylamino)ethyl]-5-isoquinolinesulfonamide]
- effect on epinephrine-induced mechanical hyperalgesia [1]: did not block
- effect on epinephrine-induced ERK phosphorylation [2]: did not reduce; also recorded: did not block

Molecule: Cc1ccc(OCC(O)C(C)NC(C)C)c2c1CCC2 (stereo not drawn) [ICI 118,551]
- effect on epinephrine-induced ERK phosphorylation [2]: inhibited
- effect on basal ERK phosphorylation ([2]; unstimulated cultures): did not inhibit

Molecule: CNC(=N)NCCC[C@H](N)C(=O)O [L-NMA, NG-methyl-L-arginine]
- effect on epinephrine-induced hyperalgesia ([3]; gonadectomized female rats): significantly antagonized
- effect on epinephrine-induced hyperalgesia ([3]; gonadectomized male rats): significantly antagonized
- effect on epinephrine-induced hyperalgesia ([3]; intact female rats): did not have a significant effect
- effect on epinephrine-induced hyperalgesia ([3]; intact male rats): significantly antagonized
- effect on prostaglandin E2-induced hyperalgesia ([4]; both sexes, gonad-intact, inhibitor 1 μg, PGE2 100 ng intradermal): significantly blocked; also recorded: inhibited to a similar degree

- pain threshold following administration of Taxol [5]: approximately 70 grams
Molecule: CC(=O)O[C@H]1C(=O)[C@@]2(C)[C@H]([C@H](OC(=O)c3ccccc3)[C@]3(O)C[C@H](OC(=O)[C@H](O)[C@@H](NC(=O)c4ccccc4)c4ccccc4)C(C)=C1C3(C)C)[C@]1(OC(C)=O)CO[C@@H]1C[C@@H]2O [Taxol]

- threshold following chronic consumption of alcohol diet ([6]; female rats (FIG. 13A)): approximately 70 grams
- threshold following chronic consumption of alcohol diet ([6]; male rats (FIG. 13B)): approximately 70 grams
- pain threshold following chronic consumption of alcohol diet ([6]; normal approximately 110 grams): approximately 70 grams
Molecule: CCO [alcohol]

Molecule: C=C(C)[C@@H]1CC=C(C(=O)O)CC1 [perillic acid]
- effect on epinephrine-induced mechanical hyperalgesia [1]: reduced

Molecule: Cc1ccc(N(CC2=NCCN2)c2cccc(O)c2)cc1 [phentolamine]
- effect on epinephrine hyperalgesia in the rat (previously demonstrated) [7]: not

Molecule: CC(C)NCC(O)COc1cccc2ccccc12 (stereo not drawn) [propranolol]
- effect on epinephrine hyperalgesia in the rat (previously demonstrated) [7]: significantly attenuated
- effect on epinephrine-induced hyperalgesia ([3]; intact female rats): inhibited
- effect on epinephrine-induced hyperalgesia ([3]; intact male rats): inhibited

Molecule: CCCCC[C@H](O)/C=C/[C@H]1[C@H](O)CC(=O)[C@@H]1C/C=C\CCCC(=O)O [prostaglandin E2]
- magnitude of hyperalgesia in intact female rats vs males ([4]; PGE2 100 ng): greater

- pain threshold following administration of vincristine [8]: approximately 65 grams
Molecule: CC[C@]1(O)C[C@H]2CN(CCc3c([nH]c4ccccc34)[C@@](C(=O)OC)(c3cc4c(cc3OC)N(C=O)[C@H]3[C@@](O)(C(=O)OC)[C@H](OC(C)=O)[C@]5(CC)C=CCN6CC[C@]43[C@@H]65)C2)C1 [vincristine]

Molecule: calphostin C
- effect on epinephrine-induced ERK phosphorylation [2]: did not reduce

Molecule: pertussis toxin
- effect on epinephrine-induced mechanical hyperalgesia [1]: reduced
- effect on epinephrine-induced phosphorylation of ERK1/2 ([2]; pertussis toxin or 1 μM FTase I for 16 hr, then 1 μM epinephrine): prevented; also recorded: inhibit

B1: NGF: mouse 2.5 S nerve growth factor, positive control for ERK1/2 phosphorylation (protein, UniProt P01139 122-241, looked up)
Beta-nerve growth factor: SSTHPVFHMGEFSVCDSVSVWVGDKTTATDIKGKEVTVLAEVNINNSVFRQYFFETKCRASNPVESGCRGIDSKHWNSYCTTTHTFVKALTTDEKQAAWRFIRIDTACVCVLSRKATRRG
modifications: Beta-nerve growth factor
notes: mouse 2.5 S nerve growth factor, positive control for ERK1/2 phosphorylation
- ERK1/2 phosphorylation (representative Western blot) ([2]; epinephrine for indicated times, NGF 50 ng/ml 5 min): stimulation
